Test results published in PMC6273089, “Secondary Metabolites Produced by an Endophytic Fungus Pestalotiopsis sydowiana and Their 20S Proteasome Inhibitory Activities” (Molecules, 2016).

What follows are molecules tested against human erythrocyte 20S proteasome (Homo sapiens, UniProt P28074) (assay: 20S proteasome inhibition assay (chymotrypsin-like activity, Suc-LLVY-AMC substrate)). Settings: not given.

IC50	SMILES
1.2 ± 0.3 µM	C/C=C(/C)c1cc(OC)cc(=O)o1 [Compound 8, pestalotiopyrone G]
> 100 µM	COc1c(/C=C/C(C)(C)O)ccc2c1C(=O)OCc1cc(C)cc(O)c1O2 [Compound 4, dehydroisopenicillide]
> 100 µM	COc1cc(C(C)C(C)O)oc(=O)c1 (centres unmarked) [Compound 7, pestalotiopyrone E]
8.9 ± 1.5 µM	CCC[C@@H](O)[C@H](O)C1CC(OC)=CC(=O)O1 (some centres unmarked) [Compound 9, LL-P880b]
> 100 µM	COc1cc(C(C)(O)C(C)O)oc(=O)c1 (centres unmarked) [Compound 6, pestalotiopyrone D]
18.5 ± 4.2 µM	C=C(C)[C@@H](O)[C@H](O)c1ccc2c(c1OC)C(=O)OCc1cc(C)cc(O)c1O2 [Compound 2, pestalotiollide B]
12.4 ± 1.1 µM	C=C(C)[C@@H](O)[C@@H](O)c1ccc2c(c1OC)C(=O)OCc1cc(C)cc(O)c1O2 [Compound 3, pestalotiollide A]
30.5 ± 1.5 µM	COc1c(/C=C/C(C)(C)OC)ccc2c1C(=O)OCc1cc(C)cc(O)c1O2 [Compound 1, 3′-O-methyldehydroisopenicillide]
7.9 ± 1.8 µM	CCC(O)C[C@H](O)C1CC(OC)=CC(=O)O1 (some centres unmarked) [Compound 10, photipyrone B]
20.5 ± 2.3 µM	COC1=CC(=O)OC(CO)C1 (centres unmarked) [Compound 5, 6-hydroxymethyl-4-methoxy-5,6-dihydro-2H-pyran-2-one]

Same assay, conditions: chymotrypsin-like activity

20S proteasome inhibitory activity (in words)	SMILES
strong activity	C/C=C(/C)c1cc(OC)cc(=O)o1 [Compound 8, pestalotiopyrone G]
